Assay results reported in patent US20260042755A1, “GPR6 INVERSE AGONISTS” (MapLight Therapeutics, Inc., priority 2022, published 2026).

Assays:
GPR3 = biological target: T1, GPR3 (Homo sapiens, UniProt P46089); assay: GPR3 antagonist functional cAMP assay (LANCE Ultra cAMP TR-FRET, CHO cells stably expressing GPR3); format: cell-based; conditions: CHO cells stably expressing GPR3, cAMP assay (Example 24)
T1 construct: expressed in transfected cells; host or cells: CHO cells
Procedure, shortened: (§1)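 Read-out was TR-FRET cAMP signal at 665 nm after 1 h at room temperature, following 45 min compound exposure at 37 °C. Assay buffer contained 0.1% BSA and 150 μM Ro 20-1724. Antagonist IC50s were fitted with a 4-parameter logistic against DMSO and reference controls.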

GPR6 = biological target: T2, GPR6 (Homo sapiens, UniProt P46095); assay: GPR6 antagonist functional cAMP assay (LANCE Ultra cAMP TR-FRET, CHO cells stably expressing GPR6); format: cell-based; conditions: CHO cells stably expressing GPR6, cAMP assay (Example 24)
T2 construct: expressed in transfected cells; host or cells: CHO cells
Procedure, shortened: as §1

T1 sequence (P46089 whole entry, species assumed): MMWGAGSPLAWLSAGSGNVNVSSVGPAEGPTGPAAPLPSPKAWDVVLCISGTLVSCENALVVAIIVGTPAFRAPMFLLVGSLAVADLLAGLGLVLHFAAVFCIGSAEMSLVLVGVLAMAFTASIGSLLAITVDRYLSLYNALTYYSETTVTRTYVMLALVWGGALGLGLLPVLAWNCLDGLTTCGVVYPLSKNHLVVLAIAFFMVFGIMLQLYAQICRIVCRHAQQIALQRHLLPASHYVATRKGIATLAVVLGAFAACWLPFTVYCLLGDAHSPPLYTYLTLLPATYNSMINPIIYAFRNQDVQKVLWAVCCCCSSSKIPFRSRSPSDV
T2 sequence (P46095 whole entry): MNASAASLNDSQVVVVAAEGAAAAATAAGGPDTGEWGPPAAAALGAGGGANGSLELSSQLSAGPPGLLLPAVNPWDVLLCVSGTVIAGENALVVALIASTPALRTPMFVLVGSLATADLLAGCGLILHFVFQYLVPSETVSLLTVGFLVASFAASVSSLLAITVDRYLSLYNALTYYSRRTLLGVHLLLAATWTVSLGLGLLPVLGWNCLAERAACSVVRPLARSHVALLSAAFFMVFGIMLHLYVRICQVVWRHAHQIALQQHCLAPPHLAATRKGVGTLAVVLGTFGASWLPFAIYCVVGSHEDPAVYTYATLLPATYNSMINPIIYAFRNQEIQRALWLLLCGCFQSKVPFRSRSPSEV

CC(C)S(=O)(=O)N1CCc2nc(N3CCC(Oc4ccc(F)cc4F)CC3)c(-c3cn[nH]c3)nc2C1 [Compound 150, 4-(2,4-difluorophenoxy)-1-[6-(propane-2-sulfonyl)-3-(1H-pyrazol-4-yl)-5H,6H,7H,8H-pyrido[3,4-b]pyrazin-2-yl]piperidine]
IC50 (GPR3): 1000 to 30000 nM
IC50 (GPR6): < 100 nM

O=S(=O)(C1COC1)N1CCc2nc(N3CCC(Oc4ccc(F)cc4F)CC3)c(-c3cnn(C4CCCCO4)c3)nc2C1 (stereo not drawn) [Compound 151, 4-(2,4-difluorophenoxy)-1-{3-[1-(oxan-2-yl)-1H-pyrazol-4-yl]-6-(oxetane-3-sulfonyl)-5H,6H,7H,8H-pyrido[3,4-b]pyrazin-2-yl}piperidine]
IC50 (GPR3): 1000 to 30000 nM
IC50 (GPR6): 1000 to 30000 nM

CC(C)(C)OC(=O)N1CC(C(=O)N2CCc3nc(N4CCC(Oc5ccc(F)cc5F)CC4)c(-c4cnn(C5CCCCO5)c4)nc3C2)C1 (stereo not drawn) [Compound 152, tert-butyl 3-{2-[4-(2,4-difluorophenoxy)piperidin-1-yl]-3-[1-(oxan-2-yl)-1H-pyrazol-4-yl]-5H,6H,7H,8H-pyrido[3,4-b]pyrazine-6-carbonyl}azetidine-1-carboxylate]
IC50 (GPR3): 1000 to 30000 nM
IC50 (GPR6): 1000 to 30000 nM

O=C(C1CNC1)N1CCc2nc(N3CCC(Oc4ccc(F)cc4F)CC3)c(-c3cn[nH]c3)nc2C1 [Compound 153, 1-[6-(azetidine-3-carbonyl)-3-(1H-pyrazol-4-yl)-5H,6H,7H,8H-pyrido[3,4-b]pyrazin-2-yl]-4-(2,4-difluorophenoxy)piperidine]
IC50 (GPR3): 1000 to 30000 nM
IC50 (GPR6): 1000 to 30000 nM

COC(=O)N1CCc2nc(N3CCC(Oc4ccc(F)cc4F)CC3)c(-c3cn[nH]c3)nc2C1 [Compound 154, methyl 2-[4-(2,4-difluorophenoxy)piperidin-1-yl]-3-(1H-pyrazol-4-yl)-5H,6H,7H,8H-pyrido[3,4-b]pyrazine-6-carboxylate]
IC50 (GPR3): 1000 to 30000 nM
IC50 (GPR6): < 100 nM

CC(C)OC(=O)N1CCc2nc(N3CCC(Oc4ccc(F)cc4F)CC3)c(-c3cnn(C4CCCCO4)c3)nc2C1 (stereo not drawn) [Compound 156, propan-2-yl 2-[4-(2,4-difluorophenoxy)piperidin-1-yl]-3-[1-(oxan-2-yl)-1H-pyrazol-4-yl]-5H,6H,7H,8H-pyrido[3,4-b]pyrazine-6-carboxylate]
IC50 (GPR3): 1000 to 30000 nM
IC50 (GPR6): 1000 to 30000 nM

CC(=O)N1CCc2nc(N3CCC(Oc4ccc(F)cc4F)CC3)c(-c3ccc[nH]c3=O)nc2C1 [Compound 157, 3-{6-acetyl-2-[4-(2,4-difluorophenoxy)piperidin-1-yl]-5H,6H,7H,8H-pyrido[3,4-b]pyrazin-3-yl}-1,2-dihydropyridin-2-one]
IC50 (GPR3): ≥ 30000 nM
IC50 (GPR6): ≥ 30000 nM

CC(=O)N1CCc2nc(N3CCC(Oc4ccc(F)cc4F)CC3)c(-c3cncc(O)c3)nc2C1 [Compound 158, 1-{2-[4-(2,4-difluorophenoxy)piperidin-1-yl]-3-(5-hydroxypyridin-3-yl)-5H,6H,7H,8H-pyrido[3,4-b]pyrazin-6-yl}ethan-1-one]
IC50 (GPR3): 1000 to 30000 nM
IC50 (GPR6): 1000 to 30000 nM

COc1cncc(-c2nc3cnc(Cl)cc3nc2N2CCN(Cc3ccc(F)cc3F)CC2)n1 [Compound 159, 2-(7-chloro-2-{4-[(2,4-difluorophenyl)methyl]piperazin-1-yl}pyrido[3,4-b]pyrazin-3-yl)-6-methoxypyrazine]
IC50 (GPR3): 1000 to 30000 nM
IC50 (GPR6): 1000 to 30000 nM

COc1ncc(-c2nc3c(nc2N2CCC(Oc4ccc(F)cc4F)CC2)CCN(C(C)=O)C3)cc1F [Compound 160, 1-{2-[4-(2,4-difluorophenoxy)piperidin-1-yl]-3-(5-fluoro-6-methoxypyridin-3-yl)-5H,6H,7H,8H-pyrido[3,4-b]pyrazin-6-yl}ethan-1-one]
IC50 (GPR3): 1000 to 30000 nM
IC50 (GPR6): 100 to 1000 nM

COCc1cccc(-c2nc3c(nc2N2CCC(Oc4ccc(F)cc4F)CC2)CCN(C(C)=O)C3)n1 [Compound 161, 1-{2-[4-(2,4-difluorophenoxy)piperidin-1-yl]-3-[6-(methoxymethyl)pyridin-2-yl]-5H,6H,7H,8H-pyrido[3,4-b]pyrazin-6-yl}ethan-1-one]
IC50 (GPR3): 1000 to 30000 nM
IC50 (GPR6): 1000 to 30000 nM

CC(=O)N1CCc2nc(N3CCC(Oc4ccc(F)cc4F)CC3)c(-c3cnn(C4CN(C(C)=O)C4)c3)nc2C1 [Compound 163, 1-[3-(4-{6-acetyl-2-[4-(2,4-difluorophenoxy)piperidin-1-yl]-5H,6H,7H,8H-pyrido[3,4-b]pyrazin-3-yl}-1H-pyrazol-1-yl)azetidin-1-yl]ethan-1-one]
IC50 (GPR3): 1000 to 30000 nM
IC50 (GPR6): 1000 to 30000 nM

CC(=O)N1CCc2nc(N3CCC(Oc4ccc(F)cc4F)CC3)c(-c3cnn(C4CC4)c3)nc2C1 [Compound 164]
IC50 (GPR3): 1000 to 30000 nM
IC50 (GPR6): 100 to 1000 nM

CC(=O)N1CCc2nc(N3CCC(Oc4ccc(F)cc4F)CC3)c(-c3cnn(C(C)C)c3)nc2C1 [Compound 165, 1-{2-[4-(2,4-difluorophenoxy)piperidin-1-yl]-3-[1-(propan-2-yl)-1H-pyrazol-4-yl]-5H,6H,7H,8H-pyrido[3,4-b]pyrazin-6-yl}ethan-1-one]
IC50 (GPR3): 1000 to 30000 nM
IC50 (GPR6): < 100 nM

CC(=O)N1CCc2nc(N3CCC(Oc4ccc(F)cc4F)CC3)c(-c3cccc(-c4cn[nH]c4)n3)nc2C1 [Compound 166, 1-{2-[4-(2,4-difluorophenoxy)piperidin-1-yl]-3-[6-(1H-pyrazol-4-yl)pyridin-2-yl]-5H,6H,7H,8H-pyrido[3,4-b]pyrazin-6-yl}ethan-1-one]
IC50 (GPR3): 1000 to 30000 nM
IC50 (GPR6): 100 to 1000 nM

CC(=O)N1CCc2nc(-c3cccc(=O)[nH]3)c(N3CCC(Oc4ccc(F)cc4F)CC3)nc2C1 [Compound 167, 6-{6-acetyl-3-[4-(2,4-difluorophenoxy)piperidin-1-yl]-5H,6H,7H,8H-pyrido[3,4-b]pyrazin-2-yl}-1,2-dihydropyridin-2-one]
IC50 (GPR3): 1000 to 30000 nM
IC50 (GPR6): 1000 to 30000 nM

CC(=O)N1CCc2nc(N3CCC(Oc4ccc(F)cc4F)CC3)c(-c3cccc(N)n3)nc2C1 [Compound 168, 1-[3-(6-aminopyridin-2-yl)-2-[4-(2,4-difluorophenoxy)piperidin-1-yl]-5H,6H,7H,8H-pyrido[3,4-b]pyrazin-6-yl]ethan-1-one]
IC50 (GPR3): 100 to 1000 nM
IC50 (GPR6): < 100 nM

CN1CCc2nc(N3CCC(Oc4ccc(F)cc4F)CC3)c(-c3cnn(C4CCCCO4)c3)nc2C1 (stereo not drawn) [Compound 169, 4-(2,4-difluorophenoxy)-1-{6-methyl-3-[1-(oxan-2-yl)-1H-pyrazol-4-yl]-5H,6H,7H,8H-pyrido[3,4-b]pyrazin-2-yl}piperidine]
IC50 (GPR3): 1000 to 30000 nM
IC50 (GPR6): 1000 to 30000 nM

CCN1CCc2nc(N3CCC(Oc4ccc(F)cc4F)CC3)c(-c3cn[nH]c3)nc2C1 [Compound 170, 4-(2,4-difluorophenoxy)-1-[6-ethyl-3-(1H-pyrazol-4-yl)-5H,6H,7H,8H-pyrido[3,4-b]pyrazin-2-yl]piperidine]
IC50 (GPR3): 1000 to 30000 nM
IC50 (GPR6): 100 to 1000 nM

N#CN1CCc2nc(N3CCC(Oc4ccc(F)cc4F)CC3)c(-c3cn[nH]c3)nc2C1 [Compound 171, 2-[4-(2,4-difluorophenoxy)piperidin-1-yl]-3-(1H-pyrazol-4-yl)-5H,6H,7H,8H-pyrido[3,4-b]pyrazine-6-carbonitrile]
IC50 (GPR3): 1000 to 30000 nM
IC50 (GPR6): < 100 nM

O=C(C1COC1)N1CCc2nc(N3CCC(Oc4ccc(F)cc4F)CC3)c(-c3cnn(C4CCCCO4)c3)nc2C1 (stereo not drawn) [Compound 172, 4-(2,4-difluorophenoxy)-1-{3-[1-(oxan-2-yl)-1H-pyrazol-4-yl]-6-(oxetane-3-carbonyl)-5H,6H,7H,8H-pyrido[3,4-b]pyrazin-2-yl}piperidine]
IC50 (GPR3): 1000 to 30000 nM
IC50 (GPR6): 100 to 1000 nM

COC(C)(C)C(=O)N1CCc2nc(N3CCC(Oc4ccc(F)cc4F)CC3)c(-c3cnn(C4CCCCO4)c3)nc2C1 (stereo not drawn) [Compound 173, 1-{2-[4-(2,4-difluorophenoxy)piperidin-1-yl]-3-[1-(oxan-2-yl)-1H-pyrazol-4-yl]-5H,6H,7H,8H-pyrido[3,4-b]pyrazin-6-yl}-2-methoxy-2-methylpropan-1-one]
IC50 (GPR3): 1000 to 30000 nM
IC50 (GPR6): 1000 to 30000 nM

COC(C)(C)C(=O)N1CCc2nc(N3CCC(Oc4ccc(F)cc4F)CC3)c(-c3cn[nH]c3)nc2C1 [Compound 174, 1-{2-[4-(2,4-difluorophenoxy)piperidin-1-yl]-3-(1H-pyrazol-4-yl)-5H,6H,7H,8H-pyrido[3,4-b]pyrazin-6-yl}-2-methoxy-2-methylpropan-1-one]
IC50 (GPR3): 1000 to 30000 nM
IC50 (GPR6): 100 to 1000 nM

CC(C)(O)C(=O)N1CCc2nc(N3CCC(Oc4ccc(F)cc4F)CC3)c(-c3cn[nH]c3)nc2C1 [Compound 175, 1-{2-[4-(2,4-difluorophenoxy)piperidin-1-yl]-3-(1H-pyrazol-4-yl)-5H,6H,7H,8H-pyrido[3,4-b]pyrazin-6-yl}-2-hydroxy-2-methylpropan-1-one]
IC50 (GPR3): 1000 to 30000 nM
IC50 (GPR6): 100 to 1000 nM

CC(C)S(=O)(=O)N1CCc2nc(N3CCC(Oc4ccc(F)cc4F)CC3)c(-c3cnn(C4CCCCO4)c3)nc2C1 (stereo not drawn) [Compound 176, 4-(2,4-difluorophenoxy)-1-{3-[1-(oxan-2-yl)-1H-pyrazol-4-yl]-6-(propane-2-sulfonyl)-5H,6H,7H,8H-pyrido[3,4-b]pyrazin-2-yl}piperidine]
IC50 (GPR3): 1000 to 30000 nM
IC50 (GPR6): 100 to 1000 nM

CCS(=O)(=O)N1CCc2nc(N3CCC(Oc4ccc(F)cc4F)CC3)c(-c3cnn(C4CCCCO4)c3)nc2C1 (stereo not drawn) [Compound 177, 4-(2,4-difluorophenoxy)-1-[6-(ethanesulfonyl)-3-[1-(oxan-2-yl)-1H-pyrazol-4-yl]-5H,6H,7H,8H-pyrido[3,4-b]pyrazin-2-yl]piperidine]
IC50 (GPR3): 1000 to 30000 nM
IC50 (GPR6): 100 to 1000 nM

O=C(C1CCCN1)N1CCc2nc(N3CCC(Oc4ccc(F)cc4F)CC3)c(-c3cn[nH]c3)nc2C1 (stereo not drawn) [Compound 178, 4-(2,4-difluorophenoxy)-1-[3-(1H-pyrazol-4-yl)-6-(pyrrolidine-2-carbonyl)-5H,6H,7H,8H-pyrido[3,4-b]pyrazin-2-yl]piperidine]
IC50 (GPR3): 1000 to 30000 nM
IC50 (GPR6): 100 to 1000 nM
